The numbers were not newly measured in patent publication US20250243467A1, “BONE MARROW ORGANOIDS PRODUCED FROM INDUCED PLURIPOTENT STEM CELLS AND USES OF THESE ORGANOIDS” (PRISM INGENUITY GMBH, priority 2022, published 2025), which cites them from elsewhere.

Targets include ALK6 (Homo sapiens, UniProt O00238); ALK3 (Homo sapiens, UniProt P36894); ALK2 (Homo sapiens, UniProt Q04771).
The next data set addresses T1, ALK7 (Homo sapiens, UniProt Q8NER5).
T1 sequence (Q8NER5 21-493): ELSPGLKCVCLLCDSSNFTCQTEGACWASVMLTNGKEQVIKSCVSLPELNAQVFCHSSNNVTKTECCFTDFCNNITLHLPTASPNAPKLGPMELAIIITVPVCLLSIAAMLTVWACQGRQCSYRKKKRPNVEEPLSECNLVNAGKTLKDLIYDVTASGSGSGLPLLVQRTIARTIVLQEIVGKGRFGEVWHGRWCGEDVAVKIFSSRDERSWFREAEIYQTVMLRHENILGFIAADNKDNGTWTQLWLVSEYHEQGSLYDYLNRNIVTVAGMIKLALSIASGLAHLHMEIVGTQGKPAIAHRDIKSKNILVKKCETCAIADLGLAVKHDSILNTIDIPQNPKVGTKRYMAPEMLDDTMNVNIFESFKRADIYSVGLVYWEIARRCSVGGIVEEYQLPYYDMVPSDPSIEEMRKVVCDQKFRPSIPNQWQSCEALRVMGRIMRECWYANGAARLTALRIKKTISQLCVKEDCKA
To be noted: competing for the ATP binding site.

Chain of ALK6 (O00238 14-502): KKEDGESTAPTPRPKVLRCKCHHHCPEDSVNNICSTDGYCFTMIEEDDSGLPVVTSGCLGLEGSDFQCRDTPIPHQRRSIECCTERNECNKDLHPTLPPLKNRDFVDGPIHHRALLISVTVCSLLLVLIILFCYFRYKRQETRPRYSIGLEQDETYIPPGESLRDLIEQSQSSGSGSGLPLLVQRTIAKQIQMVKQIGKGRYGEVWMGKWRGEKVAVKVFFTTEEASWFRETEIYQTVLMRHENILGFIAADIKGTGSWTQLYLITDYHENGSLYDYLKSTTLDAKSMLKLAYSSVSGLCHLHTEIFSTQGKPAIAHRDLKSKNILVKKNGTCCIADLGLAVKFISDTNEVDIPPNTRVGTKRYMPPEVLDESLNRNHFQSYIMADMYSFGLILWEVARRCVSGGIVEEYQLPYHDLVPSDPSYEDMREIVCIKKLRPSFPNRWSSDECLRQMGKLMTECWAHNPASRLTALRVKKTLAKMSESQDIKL
Chain of ALK3 (P36894 24-532, species assumed): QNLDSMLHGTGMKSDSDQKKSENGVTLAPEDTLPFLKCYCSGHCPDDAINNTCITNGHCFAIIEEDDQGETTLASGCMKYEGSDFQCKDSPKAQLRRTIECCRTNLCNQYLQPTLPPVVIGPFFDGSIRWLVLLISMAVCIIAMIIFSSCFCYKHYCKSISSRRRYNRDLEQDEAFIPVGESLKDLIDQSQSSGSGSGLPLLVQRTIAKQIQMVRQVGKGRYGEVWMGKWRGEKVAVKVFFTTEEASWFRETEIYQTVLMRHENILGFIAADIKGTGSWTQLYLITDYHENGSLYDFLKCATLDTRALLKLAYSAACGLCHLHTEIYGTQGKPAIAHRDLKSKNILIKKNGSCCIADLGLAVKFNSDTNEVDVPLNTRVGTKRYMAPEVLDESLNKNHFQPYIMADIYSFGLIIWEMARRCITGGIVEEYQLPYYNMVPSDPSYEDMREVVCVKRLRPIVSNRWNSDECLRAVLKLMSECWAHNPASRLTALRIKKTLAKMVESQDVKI
Chain of ALK2 (Q04771 21-509, species assumed): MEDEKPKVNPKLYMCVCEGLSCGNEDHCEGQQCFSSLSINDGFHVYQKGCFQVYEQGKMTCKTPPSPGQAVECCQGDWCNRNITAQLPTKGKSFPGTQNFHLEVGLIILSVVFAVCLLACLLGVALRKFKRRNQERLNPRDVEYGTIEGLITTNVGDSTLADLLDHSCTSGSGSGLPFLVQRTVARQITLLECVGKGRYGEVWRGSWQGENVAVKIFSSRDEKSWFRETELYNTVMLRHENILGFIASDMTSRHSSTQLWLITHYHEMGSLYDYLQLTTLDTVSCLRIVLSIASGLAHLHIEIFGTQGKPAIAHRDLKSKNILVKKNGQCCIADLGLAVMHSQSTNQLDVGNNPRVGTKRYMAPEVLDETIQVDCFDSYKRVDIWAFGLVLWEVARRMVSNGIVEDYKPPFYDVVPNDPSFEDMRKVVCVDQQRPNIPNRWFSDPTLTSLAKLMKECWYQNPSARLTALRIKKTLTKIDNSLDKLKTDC

Consider `NC(=O)c1ccc(-c2nc(-c3ccc4c(c3)OCO4)c(-c3ccccn3)[nH]2)cc1` [SB431542], for which the “inhibition of ALK7” value on ALK7 was “inhibits”. For the same compound, on ALK6, the “inhibition of BMP type I receptor ALK6” value is listed as “does not inhibit”. Further, on ALK3, the “inhibition of BMP type I receptor ALK3” value was “does not inhibit”. Moreover, the “inhibition of BMP type I receptor ALK2” value at ALK2 is on record as “does not inhibit”.
